Legend:
[1] = system: Magnaporthe grisea (Pyricularia oryzae); experiment: microbe, parasite or virus in culture; format: cell-based; conditions: read-out: control of Magnaporthe grisea
[2] = system: Botryotinia fuckeliana (Botrytis cinerea); experiment: Botryotinia fuckeliana (Botrytis cinerea)/Liquid Culture (Gray Mould); format: cell-based; conditions: 200 ppm, liquid culture, compared to untreated control, 3-4 days after application, read-out: control of Botryotinia fuckeliana
[3] = system: Monographella nivalis (Microdochium nivale); experiment: Monographella nivalis (Microdochium nivale)/Liquid Culture (Foot Rot Cereals); format: cell-based; conditions: 200 ppm, liquid culture, compared to untreated control, 4-5 days after application, read-out: control of Monographella nivalis
Fusarium culmorum [4] = experiment: whole plant or invertebrate; format: in vivo; conditions: in Triticum aestivum, read-out: control of Fusarium culmorum
Fusarium culmorum [5] = experiment: microbe, parasite or virus in culture; format: cell-based; conditions: read-out: control of Fusarium culmorum
Sclerotinia sclerotiorum = experiment: Sclerotinia sclerotiorum/Liquid Culture (Cottony Rot); conditions: read-out: control of Sclerotinia sclerotiorum
Method: Mycelia fragments of a newly grown liquid culture of the fungus are directly mixed into nutrient broth (Vogels broth). After placing a (DMSO) solution of test compound into a microtiter plate (96-well format) the nutrient broth containing the fungal material is added. The test plates are incubated at 24° C. and the inhibition of growth is determined photometrically 3-4 days after application.

[6] = system: Glomerella lagenarium (Colletotrichum lagenarium); experiment: Glomerella lagenarium (Colletotrichum lagenarium)/Liquid Culture (Anthracnose); format: cell-based; conditions: Colletotrichum orbiculare; 200 ppm; liquid culture, compared to untreated control, 3-4 days after application; read-out: control of Glomerella lagenarium

Compound	inhibition of growth at 200 ppm [1] [%]	inhibition of growth at 200 ppm [2] [%]	inhibition of growth at 200 ppm [3] [%]	pest or weed control at 200 ppm (Fusarium culmorum [4]) [%]	inhibition of growth at 200 ppm (Fusarium culmorum [5]) [%]	inhibition of growth at 20 ppm (Sclerotinia sclerotiorum) [%]	inhibition of growth at 200 ppm [6] [%]	melting point [°C]
C[C@](Cc1ccccc1)(CC(F)(F)F)C(=O)Nc1cnc2c(F)cccc2c1 (single isomer, unassigned) [Compound F-23]	≥ 80	≥ 80	≥ 80	≥ 80	≥ 80	≥ 80	≥ 80	–
Cc1nc2c(F)cccc2cc1NC(=O)C(C)(Cc1cccc(F)c1)CC(C)C (stereo not drawn) [Compound E-10, N-(8-fluoro-2-methyl-3-quinolyl)-2-[(3-fluorophenyl)methyl]-2,4-dimethyl-pentanamide]	≥ 80	≥ 80	≥ 80	≥ 80	≥ 80	≥ 80	≥ 80	93 to 95
C=C(C)CC(C)(Cc1cccc(F)c1)C(=O)Nc1cnc2c(F)cccc2c1 (stereo not drawn) [Compound E-11, 2-[(3-fluorophenyl)methyl]-N-(8-fluoro-3-quinolyl)-2,4-dimethyl-pent-4-enamide]	≥ 80	≥ 80	≥ 80	–	≥ 80	≥ 80	≥ 80	125 to 127
C=C(C)CC(C)(Cc1cccc(F)c1)C(=O)Nc1cc2cccc(F)c2nc1C (stereo not drawn) [Compound E-12, N-(8-fluoro-2-methyl-3-quinolyl)-2-[(3-fluorophenyl)methyl]-2,4-dimethyl-pent-4-enamide]	≥ 80	≥ 80	≥ 80	–	≥ 80	≥ 80	≥ 80	124 to 126
Cc1c(NC(=O)C(C)(Cc2ccccc2)CC(C)C)cnc2c(Cl)cccc12 (stereo not drawn) [Compound E-14, 2-benzyl-N-(8-chloro-4-methyl-3-quinolyl)-2,4-dimethyl-pentanamide]	≥ 80	≥ 80	–	–	≥ 80	≥ 80	≥ 80	124 to 126
Cc1c(NC(=O)C(C)(Cc2ccccc2)CC(F)(F)F)cnc2c(Cl)cccc12 (stereo not drawn) [Compound E-15, 2-benzyl-N-(8-chloro-4-methyl-3-quinolyl)-4,4,4-trifluoro-2-methyl-butanamide]	≥ 80	≥ 80	≥ 80	–	≥ 80	≥ 80	≥ 80	73 to 75
Cc1nc2c(F)cccc2cc1NC(=O)C(C)(Cc1ccc(F)cc1)CC(F)(F)F (stereo not drawn) [Compound E-16, 4,4,4-trifluoro-N-(8-fluoro-2-methyl-3-quinolyl)-2-[(4-fluorophenyl)methyl]-2-methyl-butanamide]	≥ 80	≥ 80	–	–	≥ 80	≥ 80	≥ 80	–
CC(Cc1cccc(F)c1)(CC(F)(F)F)C(=O)Nc1cnc2c(F)cccc2c1 (stereo not drawn) [Compound E-22, 4,4,4-trifluoro-2-[(3-fluorophenyl)methyl]-N-(8-fluoro-3-quinolyl)-2-methyl-butanamide]	≥ 80	≥ 80	≥ 80	–	≥ 80	≥ 80	≥ 80	–
CC(Cc1ccccc1)(CC1(F)CC1)C(=O)Nc1cnc2c(F)cccc2c1 (stereo not drawn) [Compound E-25, 2-benzyl-3-(1-fluorocyclopropyl)-N-(8-fluoro-3-quinolyl)-2-methyl-propanamide]	≥ 80	≥ 80	–	≥ 80	≥ 80	≥ 80	≥ 80	162 to 164
Cc1nc2c(F)cccc2cc1NC(=O)C(C)(Cc1ccccc1)CC(F)(F)F (stereo not drawn) [Compound E-47, 2-benzyl-4,4,4-trifluoro-N-(8-fluoro-2-methyl-3-quinolyl)-2-methyl-butanamide]	≥ 80	≥ 80	–	≥ 80	≥ 80	≥ 80	≥ 80	130 to 132
CC(Cc1ccccc1)(CC(F)(F)F)C(=O)Nc1cnc2c(Cl)cccc2c1 (stereo not drawn) [Compound E-51, 2-benzyl-N-(8-chloro-3-quinolyl)-4,4,4-trifluoro-2-methyl-butanamide]	≥ 80	≥ 80	≥ 80	≥ 80	≥ 80	≥ 80	≥ 80	104 to 106
C=C(Cl)CC(C)(Cc1ccccc1)C(=O)Nc1cnc2c(F)cccc2c1 (stereo not drawn) [Compound E-53, 2-benzyl-4-chloro-N-(8-fluoro-3-quinolyl)-2-methyl-pent-4-enamide]	≥ 80	≥ 80	≥ 80	≥ 80	≥ 80	≥ 80	≥ 80	148 to 150
CC(Cc1ccccc1)(CC(F)(F)Cl)C(=O)Nc1cnc2c(F)cccc2c1 (stereo not drawn) [Compound E-56, 2-benzyl-4-chloro-4,4-difluoro-N-(8-fluoro-3-quinolyl)-2-methyl-butanamide]	≥ 80	≥ 80	≥ 80	≥ 80	≥ 80	≥ 80	≥ 80	–
CC(Cc1ccccc1)(CC(F)(F)F)C(=O)Nc1cnc2ccccc2c1 (stereo not drawn) [Compound E-81, 2-benzyl-4,4,4-trifluoro-2-methyl-N-(3-quinolyl)butanamide]	≥ 80	≥ 80	–	≥ 80	≥ 80	≥ 80	≥ 80	–
Cc1c(NC(=O)[C@](C)(Cc2ccccc2)CC(C)C)cnc2c(F)cccc12 [Compound F-3, (2S)-2-benzyl-N-(8-fluoro-4-methyl-3-quinolyl)-2,4-dimethyl-pentanamide]	≥ 80	≥ 80	≥ 80	–	≥ 80	≥ 80	≥ 80	–
C=C(C)C[C@@](C)(Cc1ccccc1)C(=O)Nc1cnc2c(F)cccc2c1C [Compound F-5, (2S)-2-benzyl-N-(8-fluoro-4-methyl-3-quinolyl)-2,4-dimethyl-pent-4-enamide]	≥ 80	≥ 80	≥ 80	–	≥ 80	≥ 80	≥ 80	–
Cc1nc2c(F)cccc2cc1NC(=O)[C@](C)(Cc1ccccc1)CC(C)C [Compound F-7, (2S)-2-benzyl-N-(8-fluoro-2-methyl-3-quinolyl)-2,4-dimethyl-pentanamide]	≥ 80	≥ 80	≥ 80	≥ 80	≥ 80	≥ 80	≥ 80	–
Cc1nc2c(F)cccc2cc1NC(=O)[C@@](C)(Cc1ccccc1)CC(C)C [Compound F-8, (2R)-2-benzyl-N-(8-fluoro-2-methyl-3-quinolyl)-2,4-dimethyl-pentanamide]	≥ 80	≥ 80	≥ 80	≥ 80	≥ 80	≥ 80	≥ 80	–
CC1(C[C@@](C)(Cc2ccccc2)C(=O)Nc2cnc3c(F)cccc3c2)CC1 [Compound F-10, (2S)-2-benzyl-N-(8-fluoro-3-quinolyl)-2-methyl-3-(1-methylcyclopropyl) propanamide]	≥ 80	≥ 80	≥ 80	–	≥ 80	≥ 80	≥ 80	58 to 60
C[C@](Cc1ccccc1)(CC(F)(F)F)C(=O)Nc1cnc2c(F)c(F)ccc2c1 [Compound F-15, (2S)-2-benzyl-N-(7,8-difluoro-3-quinolyl)-4,4,4-trifluoro-2-methyl-butanamide]	≥ 80	≥ 80	≥ 80	–	≥ 80	≥ 80	≥ 80	–

Reference: patent US10952436B2, “Microbiocidal quinoline (thio)carboxamide derivatives” (SYNGENTA PARTICIPATIONS AG, priority 2017, dated 2021)
